{
  "source": "patent US20080064027A1",
  "about": "“TEL/Etv6-mediated inhibition of cell proliferation” (priority 2002, published 2008)",
  "key": {"[1]": {"test_system": "Stat3", "assay": "TEL-Stat3 interaction, immunoprecipitation from nuclear extracts", "assay_type": "binding", "procedure": "Since the TEL DNA-binding domain is not required for repression of Stat3 activity, this Example tests the possibility that TEL interacts directly with Stat3. Extracts from nuclear-enriched fractions were prepared from control or OSM-stimulated A375 cells. […] Endogenous TEL was present in Stat3 immunoprecipitates and the levels of TEL associating with Stat3 increased in OSM-treated compared to control-treated nuclear extracts. Conversely, Stat3 is present in a TEL-containing complex, pulled down through an immobilized GGM-containing oligonucleotide, which is a binding site for TEL."}, "[2]": {"test_system": "TEL", "assay": "TEL expression in human cancer cell lines", "assay_type": "cell-based", "description": "TEL is usually expressed as two protein isoforms corresponding to initiation of TEL mRNA translation at ATG codon 1 and 43 (TEL and TEL43). […] To ascertain if TEL is a natural target of Stat3, we examined its expression in human cancer cell lines in response to OSM or IL-6. […] However, TEL expression was unchanged in other cell lines, including the prostate cancer cells PC3 and LNCaP and MDA-MB-468 breast cancer cells, even though it was expected that Stat3 is activated in each of these cell lines by IL-6/OSM treatment."}, "[3]": {"test_system": "C/EBPdelta mRNA", "assay": "C/EBPdelta expression (quantitative PCR)", "assay_type": "cell-based", "details": "quantitative PCR", "procedure": "A LacZ siRNA was used as control. The designed RNA oligonucleotides were ‘blasted’ against the GENBANK/EMBL databank to ensure gene specificity. The RNA oligonucleotides were obtained commercially. Transfection with expression vectors was carried out 1 day after the siRNA transfection using Effectene."}, "[4]": {"test_system": "parent A375 cells", "assay": "Proliferation of parent A375 cells", "details": "4HT 1 microM"}, "[5]": {"test_system": "TEL", "assay": "TEL protein level by Western blotting", "assay_type": "cell-based", "details": "for TEL isoforms (TEL and TEL43) expression: ASER cells", "procedure": "Protein analysis was carried out by Western blotting. In brief, cells were harvested in NP40 extraction buffer (50 mM Tris (pH 7.5), 1 mM EGTA, 5 mM EDTA, 120 mM NaCl, 1% NP40, 2 mM sodium orthovanadate, 50 mM sodium fluoride, 20 mM ? -glycerophosphate, 10 μg/ml leupeptin, 10 μg/ml aprotinin, and 0.5 mM phenylmethylsulfonyl fluoride) for 5 min on ice. The lysates were clarified by centrifugation and protein concentrations were determined using the Bio-Rad protein assay reagent (Bio-Rad Laboratories Gmbh, Munich, Germany). For immunoprecipitaton, equal amounts of proteins were incubated with Stat3 (C-20) from Santa Cruz Biotechnology (Santa Cruz, Calif.) for 1 hr. Following SDS-polyacrylamide gel eletrophoresis (SDS-PAGE), proteins were blotted onto polyvinylidene difluoride membranes (Boehringer Mannheim, Mannheim, Germany). After blocking with 10% horse serum (Life Technologies, Inc.) in 50 mM Tris pH 7.5, 150 mM NaCl, 0.05% Tween 20, filters were probed with specific antibodies; c-TEL, Stat3 (C-20) from Santa Cruz Biotechnology (Santa Cruz, Calif.), phospho-Stat3 (Tyr 705) from Cell Signaling Technology (Beverly, Mass.). Proteins were visualized with peroxidase-coupled secondary antibodies using the enhanced chemiluminescence detection system (Amersham Pharmacia Biotech, Little Chalfont, United Kingdom)."}, "[6]": {"details": "nuclear lysates of OSM-stimulated A375 cells"}},
  "data": [
    {"compound": "oncostatin M [OSM]", "values": [
      {"measurement": "levels of TEL associating with Stat3 in Stat3 immunoprecipitates", "setting": "[1]; OSM-treated compared to control-treated nuclear extracts", "result": "increased"},
      {"measurement": "nuclear Stat3 levels", "setting": "[1]; [6]", "result": "expected increase in Stat3 levels"},
      {"measurement": "nuclear content of TEL", "setting": "[1]; [6]", "result": "not affected"},
      {"measurement": "TEL expression", "setting": "[2]; PC3, LNCaP prostate cancer cells and MDA-MB-468 breast cancer cells", "result": "unchanged"},
      {"measurement": "TEL expression", "setting": "[2]; T47D and SKBr-3 breast cancer cells, DU145 prostate carcinoma cells, HepG2 hepatoma-derived cells", "result": "significantly increased"}
    ]},
    {"compound": "CCC(=C(c1ccc(O)cc1)c1ccc(OCCN(C)C)cc1)c1ccccc1", "note": "[4HT, 4-hydroxytamoxifen, reference compound]", "values": [
      {"measurement": "C/EBPdelta mRNA", "setting": "[3]", "result": "significantly increased"},
      {"measurement": "proliferation of the parent A375 cells", "setting": "[4]", "result": "does not affect proliferation"},
      {"measurement": "TEL protein level upon treatment", "setting": "[5]; Stat3-ER-expressing A375 cells", "result": "strongly increased"},
      {"measurement": "TEL isoforms (TEL and TEL43) expression", "setting": "[5]; after 24 hrs of treatment", "result": "strongly increased"},
      {"measurement": "TEL isoforms (TEL and TEL43) expression", "setting": "[5]; within 8 hrs of 4HT addition", "result": "significantly increased"}
    ]}
  ]
}
